The record followed here is patent publication US8697883B2, “Cyclopenta[C]pyrrole-2-carboxylate derivatives, preparation thereof and therapeutic use thereof” (Sanofi, priority 2009, dated 2014).

Series [1] concerns the target T1, enzyme FAAH (Fatty Acid Amide Hydrolase) (Mus musculus, UniProt O08914).
T1 construct: The membrane homogenates are prepared extemporaneously by homogenizing the tissues; from tissue; host or cells: mouse brain minus cerebellum, membrane/brain homogenate
T1 sequence (O08914 1-579): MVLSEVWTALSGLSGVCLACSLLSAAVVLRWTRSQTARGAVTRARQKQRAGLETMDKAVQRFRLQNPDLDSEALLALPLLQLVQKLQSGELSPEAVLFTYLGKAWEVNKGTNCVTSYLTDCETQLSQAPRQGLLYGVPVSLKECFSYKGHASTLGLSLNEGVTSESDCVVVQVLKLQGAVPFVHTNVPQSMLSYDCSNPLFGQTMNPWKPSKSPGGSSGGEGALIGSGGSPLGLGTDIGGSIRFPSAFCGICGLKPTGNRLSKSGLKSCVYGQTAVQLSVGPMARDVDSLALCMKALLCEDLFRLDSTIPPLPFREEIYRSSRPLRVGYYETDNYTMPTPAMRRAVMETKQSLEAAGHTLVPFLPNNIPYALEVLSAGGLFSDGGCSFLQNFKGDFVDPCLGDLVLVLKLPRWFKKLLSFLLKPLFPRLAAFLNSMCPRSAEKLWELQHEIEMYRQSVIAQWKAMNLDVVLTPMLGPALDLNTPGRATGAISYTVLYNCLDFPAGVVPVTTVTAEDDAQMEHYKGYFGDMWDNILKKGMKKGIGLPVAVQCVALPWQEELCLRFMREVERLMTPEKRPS
Description: FAAH radioenzymatic test, hydrolysis of anandamide [ethanolamine 1-3H] (protocol 1). It is filed as biochemical. The note with it: mouse brain membrane homogenate, anandamide 10 μM, 20 min preincubation at 25° C., read-out: IC50 (concentration that inhibits 50% of the control enzymatic activity of FAAH). As for the experimental part:
(§1) The compounds of the invention underwent pharmacological tests to determine their inhibitory effect on the enzyme FAAH (Fatty Acid Amide Hydrolase).
Thus, mouse brains (minus the cerebellum) are removed and stored at −80° C. The membrane homogenates are prepared extemporaneously by homogenizing the tissues using a Precellys® machine in reaction buffer (10 mM Tris-HCl, pH=8, 150 mM NaCl and 1 mM ethylenediaminetetraacetic acid (EDTA)). The enzymatic reaction is performed in 96-well Multiscreen filtration plates in a final volume of 70 μL. Reaction buffer supplemented with fatty acid-free bovine serum albumin (BSA, 1 mg/ml) is used for the enzymatic reaction and the dilution of the compounds and of the anandamide [ethanolamine 1-^3H]. The reaction buffer containing BSA (43 μL/well), the diluted test compounds at different concentrations (7 μL/well containing 1% DMSO) and the membrane preparation (10 μL/well, i.e. 200 μg of tissue per test) are successively added to the wells. After preincubation for 20 minutes of the compounds with the enzyme at 25° C., the reaction is started by adding anandamide [ethanolamine 1-^3H] (specific activity of 15-20 Ci/mmol) diluted with cold anandamide (10 μL/well, final concentration of 10 μM, 0.01 μCi per test). After incubation for 20 minutes at 25° C., the enzymatic reaction is stopped by adding a […] solution of active charcoal prepared in 1.5M NaCl buffer and 0.5 M HCl (50 μL/well). The mixture is stirred for 10 minutes and the aqueous phase containing the ethanolamine [1-^3H] is then recovered by filtration under vacuum and counted by liquid scintillation.

The target of series [2] is T1, enzyme FAAH (Fatty Acid Amide Hydrolase). The series is described as follows: FAAH fluorescent enzymatic test, hydrolysis of AAMC (protocol 2). It is filed as biochemical. Conditions: mouse brain homogenate, AAMC 10 μM, 20 min preincubation at 25° C., 40 min at 37° C., read-out: IC50 (concentration that inhibits 50% of the control enzymatic activity of FAAH). As for the experimental part: as §1
Thus, mouse brains (minus the cerebellum) are withdrawn and stored at −80° C. The brain homogenates are prepared extemporaneously by homogenizing the tissues using a Precellys® machine in reaction buffer (10 mM Tris-HCl, pH=8, 150 mM NaCl and 1 mM ethylenediaminetetraacetic acid (EDTA)). The enzymatic reaction is performed in black polystyrene 384-well plates in a final volume of 50 μL. Reaction buffer supplemented with fatty acid-free bovine serum albumin (BSA, 1 mg/ml) is used for the enzymatic reaction, the dilution of the compounds and the dilution of the AAMC. Reaction buffer containing the BSA (25 μL/well), the diluted test compounds at different concentrations (5 μL/well containing 1% DMSO) and the membrane preparation (10 μL/well, i.e. 200 μg of tissue per test) are successively added to the wells. After preincubation for 20 minutes of the compounds with the enzyme at 25° C., the reaction is started by adding 10 μL of substrate per well (AAMC, final concentration of 10 μM). After incubation for 40 minutes at 37° C., the aminomethyl coumarin (AMC) produced is measured by fluorescent counting (Envision plate reader).

In series [3] the test system is male OF1 mice. The series is described as follows: Test of analgesia: PBQ-induced abdominal stretching. The class given is in vivo, mouse. Conditions: 30 mg/kg p.o. at 120 minutes. As to the method:
The in vivo activity of the compounds of the invention was evaluated in a test of analgesia.
Thus, the intraperitoneal (i.p.) administration of PBQ (phenylbenzoquinone, 2 mg/kg in 0.9% sodium chloride solution containing 5% ethanol) to male OF1 mice weighing 25 to 30 g causes abdominal stretching, on average 30 torsions or contractions within a period of 5 to 15 minutes after injection. The test compounds are administered orally (p.o.) or intraperitoneally (i.p.) suspended in Tween 80 at 0.5%, 60 minutes or 120 minutes before the administration of PBQ. Under these conditions, the compounds of the invention that are the most powerful reduce by 35% to 80% the number of stretches induced with PBQ, over a dose range of between 1 and 30 mg/kg.

As to `CCOc1ccc2ccc(O[C@H]3C[C@@H]4CN(C(=O)OCc5nccs5)C[C@@H]4C3)cc2c1` [Compound 3, thiazol-2-ylmethyl (3aR,5s,6aS)-5-[(7-ethoxy-2-naphthyl)oxy]hexahydrocyclopenta[c]pyrrole-2(1H)-carboxylate], the IC50 in series [1] was 3.5 nM. On to `CN(C)C(=O)c1cc(COC(=O)N2C[C@H]3C[C@H](Oc4ccc(F)cc4)C[C@H]3C2)on1` [Compound 44, (3-dimethylcarbamoylisoxazol-5-yl)methyl (3aR,5s,6aS)-5-(4-fluorophenoxy)hexahydrocyclopenta[c]pyrrole-2(1H)-carboxylate], for which the IC50 in series [2] worked out at 7.4 nM. As usually defined, the melting point is the temperature, or range, at which the solid turns liquid. Turning to `CCOc1ccc2ccc(OC3CC4CN(C(=O)OCc5nc(C(=O)NC)cs5)CC4C3)cc2c1` [Compound 23, [4-(methylcarbamoyl)thiazol-2-yl]methyl (3aR,5s,6aS)-5-[(7-ethoxy-2-naphthyl)oxy]hexahydrocyclopenta[c]pyrrole-2(1H)-carboxylate], the melting point fell in the range of 149 to 151 °C. In series [1], the IC50 was 34 nM.

For the compound `CNC(=O)c1cc(COC(=O)N2C[C@H]3C[C@H](Oc4ccc(Cl)c(F)c4)C[C@H]3C2)on1` [Compound 35, [3-(methylcarbamoyl)isoxazol-5-yl]methyl (3aR,5s,6aS)-5-(4-chloro-3-fluorophenoxy)hexahydrocyclopenta[c]pyrrole-2(1H)-carboxylate], the “reduction of the number of stretches induced with PBQ” value in series [3] turned out to be 50%. Take `CCOc1ccc2ccc(O[C@H]3C[C@@H]4CN(C(=O)OCc5cc(C(N)=O)no5)C[C@@H]4C3)cc2c1` [Compound 24, (3-carbamoylisoxazol-5-yl)methyl (3aR,5s,6aS)-5-[(7-ethoxy-2-naphthyl)oxy]hexahydrocyclopenta[c]pyrrole-2(1H)-carboxylate]: the “reduction of the number of stretches induced with PBQ” value in series [3] is given as 50%.

With `NC(=O)c1cc(COC(=O)N2C[C@H]3C[C@H](Oc4ccc(Cl)cc4)C[C@H]3C2)on1` [Compound 12, (3-carbamoylisoxazol-5-yl)methyl (3aR,5s,6aS)-5-(4-chlorophenoxy)hexahydrocyclopenta[c]pyrrole-2(1H)-carboxylate], the IC50 in series [1] is 19 nM. Compound `O=C(OCc1csnn1)N1C[C@H]2C[C@H](Oc3ccc(Cl)cc3)C[C@H]2C1` [Compound 7, 1,2,3-thiadiazol-4-ylmethyl (3aR,5s,6aS)-5-(4-chlorophenoxy)hexahydrocyclopenta[c]pyrrole-2(1H)-carboxylate] displayed a melting point of 122 to 124 °C. Also, the IC50 in series [1] worked out at 89 nM. As to `CNC(=O)c1cc(COC(=O)N2C[C@H]3C[C@H](Oc4ccc(-c5ccc(F)cc5)cc4)C[C@H]3C2)on1` [Compound 45, (3-methylcarbamoylisoxazol-5-yl)methyl (3aR,5s,6aS)-5-[(4′-fluorobiphenyl-4-yl)oxy]hexahydrocyclopenta[c]-pyrrole-2(1H)-carboxylate], the melting point was in the range of 154 to 156 °C. The IC50 in series [2] amounted to 0.47 nM.

`CNC(=O)c1cc(COC(=O)N2C[C@H]3C[C@H](Oc4ccc(Cl)c5ccccc45)C[C@H]3C2)on1` [Compound 28, [3-(methylcarbamoyl)isoxazol-5-yl]methyl (3aR,5s,6aS)-5-[(4-chloro-1-naphthyl)oxy]hexahydrocyclopenta[c]pyrrole-2(1H)-carboxylate] yielded a melting point of 131 to 133 °C. For the same compound, the IC50 in series [1] came to 12 nM. Take `NC(=O)c1cc(COC(=O)N2C[C@H]3C[C@H](Oc4ccc(Cl)c(F)c4)C[C@H]3C2)on1` [Compound 34, (3-carbamoylisoxazol-5-yl)methyl (3aR,5s,6aS)-5-(4-chloro-3-fluorophenoxy)hexahydrocyclopenta[c]pyrrole-2(1H)-carboxylate]: the melting point fell in the range of 100 to 102 °C. For the same compound, the IC50 in series [1] was 3.2 nM.
